Values after ≈ are worked out from the molar mass of the structure shown.
Assays:
Assay type in all cases: functional
Enterobacter hormaechei = test: Antibacterial activity against Enterobacter xiangfangensis CP017183.1 assessed as reduction in cell viability after 24 hrs by microdilution method; conditions: subsp. xiangfangensis CP017183.1
Pseudomonas aeruginosa = test: Antibacterial activity against Pseudomonas aeruginosa NR-117678.1 assessed as reduction in cell viability after 24 hrs by microdilution method
[1] = Antibacterial activity against Escherichia fergusonii CU928158.2 assessed as reduction in cell viability after 24 hrs by microdilution method
Bacillus licheniformis = test: Antibacterial activity against Bacillus licheniformis KX785171.1 assessed as reduction in cell viability after 24 hrs by microdilution method
Staphylococcus aureus = test: Antibacterial activity against Staphylococcus aureus CP011526.1 assessed as reduction in cell viability after 24 hrs by microdilution method

SMILES	MIC (Enterobacter hormaechei) [µg/mL]	MIC (Pseudomonas aeruginosa) [µg/mL]	MIC [1] [µg/mL]	MIC (Bacillus licheniformis) [µg/mL]	MIC (Staphylococcus aureus) [µg/mL]
COc1cc(O)cc(C2=COC(C(=O)O)=C[C@H]2C)c1	15.8 (≈ 60.2 µM)	18.4 (≈ 70.2 µM)	13.2 (≈ 50.3 µM)	21.6 (≈ 82.4 µM)	> 25
O=c1cc(CO)occ1O [KOJIC ACID]	1.6 (≈ 11.3 µM)	2.9 (≈ 20.4 µM)	3.5 (≈ 24.6 µM)	14.8 (≈ 104 µM)	9.5 (≈ 66.8 µM)
NCC[C@H](O)C(=O)N[C@@H]1C[C@H](N)[C@@H](O[C@H]2O[C@H](CN)[C@@H](O)[C@H](O)[C@H]2O)[C@H](O)[C@H]1O[C@H]1O[C@H](CO)[C@@H](O)[C@H](N)[C@H]1O [AMIKACIN]	0.2 (≈ 0.342 µM)	0.8 (≈ 1.37 µM)	0.4 (≈ 0.683 µM)	0.3 (≈ 0.512 µM)	0.5 (≈ 0.854 µM)

The remaining lines, values ahead:

MIC (Enterobacter hormaechei) [µg/mL]	MIC (Pseudomonas aeruginosa) [µg/mL]	MIC [1] [µg/mL]	MIC (Bacillus licheniformis) [µg/mL]	MIC (Staphylococcus aureus) [µg/mL]	SMILES
7.8 (≈ 24.5 µM)	4.7 (≈ 14.8 µM)	11.2 (≈ 35.2 µM)	3.8 (≈ 11.9 µM)	6.3 (≈ 19.8 µM)	COc1cc(O)c2c3c(c(C)cc(C(=O)O)c13)[C@H](OC)OC2=O
0.9 (≈ 2.57 µM)	1.4 (≈ 4 µM)	2.7 (≈ 7.71 µM)	8.4 (≈ 24 µM)	6.8 (≈ 19.4 µM)	COc1cc(O)c(C(=O)O)c(C2=COC(C(=O)O)=C[C@H]2C)c1C(=O)O
3.7 (≈ 12.1 µM)	5.2 (≈ 17 µM)	7.8 (≈ 25.5 µM)	9.7 (≈ 31.7 µM)	10.3 (≈ 33.6 µM)	COc1cc(O)c(C(=O)O)c(C2=COC(C(=O)O)=C[C@H]2C)c1
